{
  "source": "patent US20220169643A1",
  "about": "“ESTROGEN RECEPTOR DEGRADING PROTACS” (AstraZeneca AB, priority 2019, published 2022)",
  "target": "T1, Estrogen Receptor Alpha Ligand binding domain (ER alpha-LBD (GST)) (Homo sapiens, UniProt P03372)",
  "T1 construct": "made in house",
  "T1 sequence (P03372 307-554)": "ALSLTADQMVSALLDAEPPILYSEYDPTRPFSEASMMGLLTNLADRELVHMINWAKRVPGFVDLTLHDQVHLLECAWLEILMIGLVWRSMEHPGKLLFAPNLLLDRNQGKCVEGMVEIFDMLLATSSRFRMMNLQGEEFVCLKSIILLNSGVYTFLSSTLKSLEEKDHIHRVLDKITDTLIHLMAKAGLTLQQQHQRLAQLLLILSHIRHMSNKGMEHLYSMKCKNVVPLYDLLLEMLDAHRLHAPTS",
  "assay": "ERα Binding Assay (LanthaScreen TR-FRET competition)",
  "details": "competitive displacement of Fluormone ES2 tracer from recombinant human ER alpha-LBD (residues 307-554), 4 hours at room temperature",
  "description": "The ability of compounds to bind to isolated Estrogen Receptor Alpha Ligand binding domain (ER alpha-LBD (GST)) was assessed in competition assays using a LanthaScreen™ Time-Resolved Fluorescence Resonance Energy Transfer (TR-FRET) detection end-point. For the LanthaScreen TR-FRET endpoint, a suitable fluorophore (Fluormone ES2, ThermoFisher, Product code P2645) and recombinant human Estrogen Receptor alpha ligand binding domain, residues 307-554 (expressed and purified in-house) were used to measure compound binding. The assay principle is that ER alpha-LBD (GST) is added to a fluorescent ligand to form a receptor/fluorophore complex. A terbium-labelled anti-GST antibody (Product code PV3551) is used to indirectly label the receptor by binding to its GST tag, and competitive binding is detected by a test compound's ability to displace the fluorescent ligand, resulting in a loss of TR-FRET signal between the Th-anti-GST antibody and the tracer. The assay was performed as follows with all reagent additions carried out using the Beckman Coulter BioRAPTR FRD microfluidic workstation: • 1. Acoustic dispense 120 nL of the test compound into a black low volume 384 well assay plates. • 2. Prepare 1×ER alpha-LBD/Tb-anti-GST Ab in ES2 screening buffer and incubate for 15 minutes. • 3. Dispense 6 μL of the 1×[…]/Th-anti-GST Ab reagent into each well of the assay plate followed by 6 μL of Fluorophore reagent into each well of the assay plate • 4. Cover the assay plate to protect the reagents from light and evaporation, and incubate at room temperature for 4 hours. • 5. Excite at 337 nm and measure the fluorescent emission signal of each well at 490 nm and 520 nm using the BMG PheraSTAR.\nCompounds were dosed directly from a compound source microplate containing serially diluted compound (4 wells containing 10 mM, […] and 10 nM final compound respectively) to an assay microplate using the Labcyte Echo 550. The Echo 550 is a liquid handler that uses acoustic technology to perform direct microplate-to-microplate transfers of DMSO compound solutions and the system can be programmed to transfer multiple small nL volumes of compound from the different source plate wells to give the desired serial dilution of compound in the assay which is then back-filled to normalise the DMSO concentration across the dilution range.\nIn total 120 nL of compound plus DMSO were added to each well and compounds were tested in a 12-point concentration response format over a final compound concentration range of 10, 2.917, 1.042, 0.2083, 0.1, 0.0292, 0.0104, 0.002083, 0.001, 0.0002917, 0.0001042, and 0.00001 μM respectively. TR-FRET dose response data obtained with each compound was exported into a suitable software package (such as Origin or Genedata) to perform curve fitting analysis. Competitive ER alpha binding was expressed as an IC50 value. This was determined by calculation of the concentration of compound that was required to give a 50% reduction in tracer compound binding to ER alpha-LBD.",
  "data": [
    {"smiles": "COc1cc(N2CCN(CCCC3CCN(c4ncc([C@@H]5c6[nH]c7ccccc7c6C[C@@H](C)N5CC(C)(C)F)cn4)CC3)CC2)cc2c1C(=O)N(C1CCC(=O)NC1=O)C2", "note": "(stereo partly drawn) [Example 13, 3-(5-{4-[3-(1-{5-[(1R,3R)-2-(2-fluoro-2-methylpropyl)-3-methyl-2,3,4,9-tetrahydro-1H-beta-carbolin-1-yl]pyrimidin-2-yl}piperidin-4-yl)propyl]piperazin-1-yl}-7-methoxy-1-oxo-1,3-dihydro-2H-isoindol-2-yl)piperidine-2,6-dione]", "values": [
      {"measurement": "IC50", "value": 3, "unit": "nM"}
    ]}
  ]
}
